{"source": "patent US20050070510A1", "about": "“Substituted tetracycline compounds as synergistic antifungal agents” (Paratek Pharmaceuticals, Inc., priority 2001, published 2005)"}
{"test_system": "COS-1 cells", "test": "In vitro mammalian cytotoxicity assay (Resazurin)"}
{"compound": "CCc1cc(C(C)=O)c(O)c2c1C[C@@]1(N)C[C@@]3(N)[C@H](N(C)C)C(O)=C(C(N)=O)C(=O)[C@@]3(C#N)C(O)=C1C2=O", "note": "[RJ]", "In Vitro Cytotoxicity": "** (toxicities less than 25 μg/mL are represented by **)"}
{"compound": "CN(C)[C@@H]1C(O)=C(C(N)=O)C(=O)[C@@]2(C#N)C(O)=C3C(=O)c4c(O)c(CNCC(C)(C)C)cc(CNCC(C)(C)C)c4C[C@@]3(N)C[C@@]12N", "note": "[TG]", "In Vitro Cytotoxicity": "* (toxicities greater than >25 μg/ml are represented by *)"}
{"compound": "CCc1cc(CNCC(C)C)c(O)c2c1C[C@@]1(N)C[C@@]3(N)[C@H](N(C)C)C(O)=C(C(N)=O)C(=O)[C@@]3(C#N)C(O)=C1C2=O", "note": "[RK]", "In Vitro Cytotoxicity": "* (toxicities greater than >25 μg/ml are represented by *)"}
{"compound": "CN(C)c1ccc(-c2cc(F)c(O)c3c2C[C@@]2(N)C[C@@]4(N)[C@H](N(C)C)C(O)=C(C(N)=O)C(=O)[C@@]4(C#N)C(O)=C2C3=O)cc1", "note": "[OX]", "In Vitro Cytotoxicity": "** (toxicities less than 25 μg/mL are represented by **)"}
{"compound": "CN(C)[C@@H]1C(O)=C(C(N)=O)C(=O)[C@@]2(C#N)C(O)=C3C(=O)c4c(O)ccc(C#Cc5ccccc5F)c4C[C@@]3(N)C[C@@]12N", "note": "[GH]", "In Vitro Cytotoxicity": "** (toxicities less than 25 μg/mL are represented by **)"}
{"compound": "CN(C)CC(=O)NCc1ccc(-c2ccc(O)c3c2C[C@@]2(N)C[C@@]4(N)[C@H](N(C)C)C(O)=C(C(N)=O)C(=O)[C@@]4(C#N)C(O)=C2C3=O)cc1", "note": "[NY]", "In Vitro Cytotoxicity": "** (toxicities less than 25 μg/mL are represented by **)"}
{"compound": "CN(C)c1cc(-c2ccc(F)cc2F)c(O)c2c1C[C@@]1(N)C[C@@]3(N)[C@H](N(C)C)C(O)=C(C(N)=O)C(=O)[C@@]3(C#N)C(O)=C1C2=O", "note": "[EX]", "In Vitro Cytotoxicity": "** (toxicities less than 25 μg/mL are represented by **)"}
{"compound": "CCOc1ccc(/C=C2\\c3cccc(O)c3C(=O)C3=C(O)[C@]4(C#N)C(=O)C(C(N)=O)=C(O)[C@@H](N(C)C)[C@]4(N)[C@@H](O)[C@@]32N)cc1", "note": "[DF]", "In Vitro Cytotoxicity": "** (toxicities less than 25 μg/mL are represented by **)"}
{"compound": "CN(C)[C@@H]1C(O)=C(C(N)=O)C(=O)[C@@]2(C#N)C(O)=C3C(=O)c4c(ccc(-c5ccc(F)cc5)c4O)[C@H](N)[C@@]3(N)[C@H](O)[C@@]12N", "note": "[BR]", "In Vitro Cytotoxicity": "** (toxicities less than 25 μg/mL are represented by **)"}
{"compound": "Cc1noc(C)c1S(=O)(=O)NCc1cc(N(C)C)c2c(c1O)C(=O)C1=C(O)[C@]3(C#N)C(=O)C(C(N)=O)=C(O)[C@@H](N(C)C)[C@]3(N)C[C@]1(N)C2", "note": "[TJ]", "In Vitro Cytotoxicity": "* (toxicities greater than >25 μg/ml are represented by *)"}
{"compound": "CN(C)[C@@H]1C(O)=C(C(N)=O)C(=O)[C@@]2(C#N)C(O)=C3C(=O)c4c(ccc(NC(=O)OCCBr)c4O)[C@H](N)[C@@]3(N)[C@H](O)[C@@]12N", "note": "[DD]", "In Vitro Cytotoxicity": "** (toxicities less than 25 μg/mL are represented by **)"}
{"compound": "CCc1ccc(-c2cc(N(C)C)c3c(c2O)C(=O)C2=C(O)[C@]4(C#N)C(=O)C(C(N)=O)=C(O)[C@@H](N(C)C)[C@]4(N)C[C@]2(N)C3)cc1", "note": "[LZ]", "In Vitro Cytotoxicity": "** (toxicities less than 25 μg/mL are represented by **)"}
{"compound": "CCc1cc(-c2ccc(N(C)C)cc2)c2c(c1O)C(=O)C1=C(O)[C@]3(C#N)C(=O)C(C(N)=O)=C(O)[C@@H](N(C)C)[C@]3(N)C[C@]1(N)C2", "note": "[PE]", "In Vitro Cytotoxicity": "** (toxicities less than 25 μg/mL are represented by **)"}
{"compound": "CN(C)[C@@H]1C(O)=C(C(N)=O)C(=O)[C@@]2(C#N)C(O)=C3C(=O)c4c(O)ccc(CCCNS(C)(=O)=O)c4C[C@@]3(N)C[C@@]12N", "note": "[IV]", "In Vitro Cytotoxicity": "* (toxicities greater than >25 μg/ml are represented by *)"}
{"compound": "CN(C)[C@@H]1C(O)=C(C(N)=O)C(=O)[C@@]2(C#N)C(O)=C3C(=O)c4c(O)c(-c5ccc6c(c5)OCO6)cc(-c5ccc6c(c5)OCO6)c4C[C@@]3(N)C[C@@]12N", "note": "[LP]", "In Vitro Cytotoxicity": "** (toxicities less than 25 μg/mL are represented by **)"}
{"compound": "CN(C)c1cc(NCc2ccc(OC(F)(F)F)cc2)c(O)c2c1C[C@@]1(N)C[C@@]3(N)[C@H](N(C)C)C(O)=C(C(N)=O)C(=O)[C@@]3(C#N)C(O)=C1C2=O", "note": "[MQ]", "In Vitro Cytotoxicity": "** (toxicities less than 25 μg/mL are represented by **)"}
